Experimental findings from article PMC9616902, “Chemical space docking enables large-scale structure-based virtual screening to discover ROCK1 kinase inhibitors” (Nature Communications, 2022) are described below.

Read-outs that look alike come from different tables or passages of the source.

For this test, the target named is T1, Human ROCK1 protein (amino acids 1–477) (Homo sapiens, UniProt Q13464).
T1 construct: purchased Carna Biosciences 01-109
Description: ROCK1 HTRF KinEASE-STK S2 biochemical activity assay. Conditions: for S0 / Sinf / nHill: curve fit parameter; for Ki: average +/- standard deviation of three measurements, 3 μM ATP. The protocol:
Human ROCK1 protein (amino acids 1–477 from accession number NP_05397.1) was purchased from Carna Biosciences (Cat# 01-109). This sequence contains the catalytic domain of the protein, and the biochemical activity was measured by the HTRF KinEASE-STK S2 Kit (Cisbio, Cat# 62ST2PEB) according to the manufacturer’s protocol. To determine the IC50, compounds were first dispensed by the Echo Liquid Handler (Labcyte) into white 384-well plates (PerkinElmer, Cat# 6008289). A total of 3 μL of 2x ROCK1 enzyme solution was added to the compounds, followed by a 10 min incubation at room temperature. Then, 2x ATP and STK S2 peptide solution were added to initiate the one-hour enzyme reaction at room temperature. The final condition of the reaction was 1.5 nM Rock1, 3 μM ATP, 0.5 μM STK S2 peptide in 50 mM HEPES pH7.2, 10 mM MgCl2, 0.1% BGG, 0.005% Brij-35, 1 mM DTT. The reaction was quenched by adding 6 μL of the detection mixture that contained Streptavidin XL665 and STK Antibody-Cryptate (Cisbio) and incubated for 1 hour at room temperature. The HTRF (665 nm/620 nm) signal was read on the PHERAstar reader (BMG Labtech). All measurements were done in triplicate.
On the technique in general: TR-FRET usually uses a lanthanide donor and a delayed reading to cut background.

[1] abbreviates: 2021-01-17 ROCK1 HTRF (n=1) 665/620, no unit printed (values equal the uM IC50 of the 7th table x 1e-6), read-out: qAC50.
Setting [2] is: 2021-01-17 ROCK1 HTRF (n=1) 665/620 Activity [%].
Setting [3] is: 2021-01-18 ROCK1 (n=3) 665/620, no unit printed (values equal the uM IC50 of the 7th table x 1e-6), read-out: qAC50.
The mark [4] stands for this setting: 2021-01-18 ROCK1 (n=3) 665/620 Activity [%].
[5] abbreviates: 2021-01-18 ROCK1 HTRF (n=2) 665/620, no unit printed (values equal the uM IC50 of the 7th table x 1e-6), read-out: qAC50.
Setting [6] is: 2021-01-18 ROCK1 HTRF (n=2) 665/620 Activity [%].
The mark [7] stands for this setting: Supplementary Figure 4 source data, unit inferred, read-out: hit IC50.

T1 sequence (Q13464 1-477): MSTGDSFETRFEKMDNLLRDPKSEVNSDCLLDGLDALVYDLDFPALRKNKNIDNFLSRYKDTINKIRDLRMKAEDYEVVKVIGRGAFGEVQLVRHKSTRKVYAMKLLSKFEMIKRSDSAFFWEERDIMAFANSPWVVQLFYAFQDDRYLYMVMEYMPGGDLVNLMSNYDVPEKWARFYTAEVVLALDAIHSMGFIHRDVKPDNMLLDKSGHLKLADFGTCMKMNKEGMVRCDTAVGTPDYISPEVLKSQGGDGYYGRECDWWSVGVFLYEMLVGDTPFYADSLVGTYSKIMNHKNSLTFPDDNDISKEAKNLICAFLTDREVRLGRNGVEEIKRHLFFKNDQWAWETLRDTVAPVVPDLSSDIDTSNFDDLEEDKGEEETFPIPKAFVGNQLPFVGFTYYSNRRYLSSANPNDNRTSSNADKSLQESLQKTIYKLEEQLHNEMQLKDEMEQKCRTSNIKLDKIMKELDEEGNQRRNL

For `O=C(NCC1(Cc2ccccc2)CC1)c1ccc(-c2cn[nH]c2)cc1` [Compound 4], the affinity corresponds to a Ki of 0.079 ± 0.013 µM. In addition, the IC50 under setting [1] was found to be 0.197 µM. Further, under setting [2], the S0 is listed as -5.337% and the Sinf is given as -98.9033%. For the same compound, the nHill (2021-01-17 ROCK1 HTRF (n=1)) was 1.05. Further, the IC50 under setting [3] was found to be 0.147 µM. Further, under setting [4], the S0 is on record as -5.138% and the Sinf is on record as -96.0861%. Besides, the nHill (2021-01-18 ROCK1 (n=3)) worked out at 1.483. The IC50 under setting [5] worked out at 0.15 µM. Moreover, under setting [6], the S0 is -6.676% and the Sinf was -95.9487%. This compound also registered a nHill (2021-01-18 ROCK1 HTRF (n=2)) of 1.644. Moreover, the IC50 under setting [7] was determined as 0.165 µM.
Compound `CC(NC(=O)c1ccc(-c2cn[nH]c2)cc1)C1CC1c1ccccc1` (mixture of isomers) [Compound 6] returned a Ki of 0.087 ± 0.028 µM. Moreover, the IC50 under setting [1] came to 0.248 µM. Under setting [2], the S0 is 0.4458% and the Sinf was -96.8224%. The same compound gave a nHill (2021-01-17 ROCK1 HTRF (n=1)) of 1.0903. For the same compound, the IC50 under setting [3] came out at 0.14 µM. Also, under setting [4], the S0 was -2.655% and the Sinf is listed as -93.6754%. Moreover, the nHill (2021-01-18 ROCK1 (n=3)) came out at 1.532. Besides, the IC50 under setting [5] stood at 0.157 µM. Under setting [6], the S0 was 3.31% and the Sinf was -94.0095%. This compound also registered a nHill (2021-01-18 ROCK1 HTRF (n=2)) of 1.2951. Moreover, the IC50 under setting [7] turned out to be 0.182 µM.
On to `CSc1cccc(F)c1CNC(=O)c1ccc(-c2cn[nH]c2)cc1` [Compound 5], for which affinity was put at a Ki of 0.082 ± 0.001 µM. The IC50 under setting [1] came to 0.173 µM. Under setting [2], the S0 was 3.131% and the Sinf is on record as -99.2397%. Further, the nHill (2021-01-17 ROCK1 HTRF (n=1)) is listed as 1.067. Under setting [3], the IC50 came to 0.171 µM. Moreover, under setting [4], the S0 was -0.4047% and the Sinf was -100.142%. This compound came in with a nHill (2021-01-18 ROCK1 (n=3)) of 0.9507. The IC50 under setting [5] came out at 0.17 µM. Also, under setting [6], the S0 worked out at 3.5105% and the Sinf is on record as -98.3773%. Further, the nHill (2021-01-18 ROCK1 HTRF (n=2)) is 1.136. For the same compound, the IC50 under setting [7] was determined as 0.171 µM.
For `CC(Cc1ccc(F)cc1F)NC(=O)c1ccc(-c2cn[nH]c2)cc1` (racemic) [Compound 3], the Ki is 0.076 ± 0.026 µM. Besides, under setting [1], the IC50 turned out to be 0.22 µM. Also, under setting [2], the S0 was found to be 1.865% and the Sinf is given as -99.1673%. For the same compound, for the setting “2021-01-17 ROCK1 HTRF (n=1)”, the nHill is 1.058. Moreover, the IC50 under setting [3] is 0.121 µM. Also, under setting [4], the S0 is -2.06% and the Sinf is recorded as -95.7048%. In addition, the nHill (2021-01-18 ROCK1 (n=3)) came out at 1.245. The IC50 under setting [5] was determined as 0.136 µM. Further, under setting [6], the S0 is recorded as -2.159% and the Sinf is -97.6218%. This compound had a nHill (2021-01-18 ROCK1 HTRF (n=2)) of 1.01. Moreover, the IC50 under setting [7] worked out at 0.159 µM.
`CC(CNC(=O)c1ccc(-c2cn[nH]c2)cc1)N1CCc2ccccc21` (stereo not drawn) [Compound 2] showed a Ki of 0.049 ± 0.002 µM. Besides, under setting [1], the IC50 was 0.108 µM. Under setting [2], the S0 is given as -2.075% and the Sinf was -98.9577%. This compound yielded a nHill (2021-01-17 ROCK1 HTRF (n=1)) of 1.042. Also, the IC50 under setting [3] amounted to 0.101 µM. Further, under setting [4], the S0 worked out at 1.158% and the Sinf is -99.9466%. For the setting “2021-01-18 ROCK1 (n=3)”, this compound gave a nHill of 0.9439. The IC50 under setting [5] is 0.1 µM. For the same compound, under setting [6], the S0 was -0.7898% and the Sinf is -98.8967%. Further, the nHill (2021-01-18 ROCK1 HTRF (n=2)) came to 0.9788. Besides, the IC50 under setting [7] was 0.103 µM.
With `COCc1cccc(CC(=O)Nc2ccc(-c3cn[nH]c3)cc2)c1` [Compound 1], affinity was put at a Ki of 0.038 ± 0.001 µM. In addition, the IC50 under setting [1] was found to be 0.0793 µM. In addition, under setting [2], the S0 is reported as -0.5714% and the Sinf is on record as -100.2%. Under “2021-01-17 ROCK1 HTRF (n=1)”, this compound registered a nHill of 1.046. In addition, the IC50 under setting [3] is 0.0806 µM. In addition, under setting [4], the S0 is on record as -1.802% and the Sinf is recorded as -99.1388%. For the setting “2021-01-18 ROCK1 (n=3)”, the nHill is reported as 1.109. Moreover, the IC50 under setting [5] was found to be 0.0814 µM. Besides, under setting [6], the S0 is on record as -5.692% and the Sinf is -99.1049%. Also, the nHill (2021-01-18 ROCK1 HTRF (n=2)) is listed as 1.139. Also, under setting [7], the IC50 turned out to be 0.08 µM.

As a reminder, the Ki is a dissociation constant, usually derived from enzyme kinetics or from competition with a known ligand. A lower Ki goes with higher affinity.
